{"source": "ChEMBL document CHEMBL5465560", "about": "“Selectivity Literature for EUbOPEN Chemogenomic Library” (2024)", "key": {"[1]": {"biological_target": "T1, Serine/threonine-protein kinase DCLK1 (Homo sapiens) (UniProt O15075)", "T1 sequence (whole entry)": "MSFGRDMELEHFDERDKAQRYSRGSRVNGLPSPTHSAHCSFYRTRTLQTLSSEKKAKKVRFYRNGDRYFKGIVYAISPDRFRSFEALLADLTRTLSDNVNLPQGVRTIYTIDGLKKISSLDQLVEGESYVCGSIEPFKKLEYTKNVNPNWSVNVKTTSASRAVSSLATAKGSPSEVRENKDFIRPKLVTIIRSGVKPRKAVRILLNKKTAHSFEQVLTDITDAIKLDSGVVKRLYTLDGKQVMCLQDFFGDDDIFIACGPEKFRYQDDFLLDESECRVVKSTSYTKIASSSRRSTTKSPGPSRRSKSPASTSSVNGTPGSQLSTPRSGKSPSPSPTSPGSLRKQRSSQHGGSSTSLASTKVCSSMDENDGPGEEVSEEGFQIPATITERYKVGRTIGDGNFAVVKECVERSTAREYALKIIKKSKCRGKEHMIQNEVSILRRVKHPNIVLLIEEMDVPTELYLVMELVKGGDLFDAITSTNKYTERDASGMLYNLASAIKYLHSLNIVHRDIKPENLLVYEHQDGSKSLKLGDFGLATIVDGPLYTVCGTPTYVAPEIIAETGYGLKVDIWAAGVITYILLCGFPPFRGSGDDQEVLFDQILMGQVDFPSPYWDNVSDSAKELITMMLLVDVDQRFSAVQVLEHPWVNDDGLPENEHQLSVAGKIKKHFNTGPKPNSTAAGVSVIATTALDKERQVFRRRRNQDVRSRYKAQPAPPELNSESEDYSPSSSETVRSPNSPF", "assay": "Selectivity interaction (KinomeScan (DiscoverX)) EUB0000229b DCLK1", "conditions": "at 10 µM"}, "[2]": {"biological_target": "Proto-oncogene tyrosine-protein kinase Src (Homo sapiens, UniProt P12931)", "sequence (P12931 2-536 limits assumed)": "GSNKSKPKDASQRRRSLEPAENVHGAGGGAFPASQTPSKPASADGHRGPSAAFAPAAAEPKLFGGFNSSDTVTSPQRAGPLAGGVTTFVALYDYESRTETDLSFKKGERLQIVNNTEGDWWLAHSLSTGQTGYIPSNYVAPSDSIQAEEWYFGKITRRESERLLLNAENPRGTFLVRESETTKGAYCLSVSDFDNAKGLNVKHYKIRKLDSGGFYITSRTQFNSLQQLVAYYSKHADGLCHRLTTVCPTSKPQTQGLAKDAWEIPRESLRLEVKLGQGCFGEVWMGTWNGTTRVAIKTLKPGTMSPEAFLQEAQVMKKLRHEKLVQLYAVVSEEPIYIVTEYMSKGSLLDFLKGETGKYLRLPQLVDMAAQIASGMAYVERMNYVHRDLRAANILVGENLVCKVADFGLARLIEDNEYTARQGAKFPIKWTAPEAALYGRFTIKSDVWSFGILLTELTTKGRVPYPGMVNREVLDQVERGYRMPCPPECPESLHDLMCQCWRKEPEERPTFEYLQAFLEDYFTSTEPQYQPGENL", "assay": "Selectivity interaction (KinomeScan (DiscoverX)) EUB0000229b SRC", "conditions": "at 10 µM"}, "[3]": {"biological_target": "Tyrosine-protein kinase HCK (Homo sapiens) (UniProt P08631)", "sequence (P08631 2-526 limits assumed)": "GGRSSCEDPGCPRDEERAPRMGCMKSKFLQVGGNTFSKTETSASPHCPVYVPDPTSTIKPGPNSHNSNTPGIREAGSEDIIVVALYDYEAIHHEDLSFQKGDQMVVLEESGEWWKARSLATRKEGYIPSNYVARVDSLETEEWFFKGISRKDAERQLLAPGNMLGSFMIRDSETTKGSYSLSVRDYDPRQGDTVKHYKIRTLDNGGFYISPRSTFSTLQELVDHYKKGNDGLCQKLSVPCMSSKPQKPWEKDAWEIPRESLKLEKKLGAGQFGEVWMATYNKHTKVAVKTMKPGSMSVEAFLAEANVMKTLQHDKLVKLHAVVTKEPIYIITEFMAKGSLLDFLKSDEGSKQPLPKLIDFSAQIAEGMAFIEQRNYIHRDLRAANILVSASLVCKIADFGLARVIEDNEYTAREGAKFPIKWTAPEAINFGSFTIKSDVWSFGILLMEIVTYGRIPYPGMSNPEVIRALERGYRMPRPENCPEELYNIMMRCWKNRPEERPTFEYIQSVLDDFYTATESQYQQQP", "assay": "Selectivity interaction (KinomeScan (DiscoverX)) EUB0000695a HCK", "conditions": "at 100 nM"}, "[4]": {"biological_target": "Dual specificity protein kinase CLK3 (Homo sapiens, UniProt P49761)", "sequence (P49761 whole entry, looked up)": "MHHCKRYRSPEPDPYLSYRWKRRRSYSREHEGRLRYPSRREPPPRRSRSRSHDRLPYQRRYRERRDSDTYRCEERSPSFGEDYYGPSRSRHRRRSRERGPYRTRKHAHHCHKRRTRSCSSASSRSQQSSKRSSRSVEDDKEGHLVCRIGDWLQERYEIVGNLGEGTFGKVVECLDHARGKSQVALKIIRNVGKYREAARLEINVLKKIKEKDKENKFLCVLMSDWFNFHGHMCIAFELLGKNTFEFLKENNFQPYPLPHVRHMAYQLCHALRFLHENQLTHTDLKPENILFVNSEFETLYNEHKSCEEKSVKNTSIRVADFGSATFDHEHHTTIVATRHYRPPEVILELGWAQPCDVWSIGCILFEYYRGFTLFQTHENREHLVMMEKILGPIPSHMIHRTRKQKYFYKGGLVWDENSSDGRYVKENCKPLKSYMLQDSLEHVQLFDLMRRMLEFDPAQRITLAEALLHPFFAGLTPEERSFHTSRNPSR", "assay": "Selectivity interaction (Kinase panel (Z-LYTE Assay)) EUB0001632a CLK3", "conditions": "at 10 µM"}, "[5]": {"biological_target": "Histone-lysine N-methyltransferase KMT5C (Homo sapiens) (UniProt Q86Y97)", "sequence (Q86Y97 whole entry, looked up)": "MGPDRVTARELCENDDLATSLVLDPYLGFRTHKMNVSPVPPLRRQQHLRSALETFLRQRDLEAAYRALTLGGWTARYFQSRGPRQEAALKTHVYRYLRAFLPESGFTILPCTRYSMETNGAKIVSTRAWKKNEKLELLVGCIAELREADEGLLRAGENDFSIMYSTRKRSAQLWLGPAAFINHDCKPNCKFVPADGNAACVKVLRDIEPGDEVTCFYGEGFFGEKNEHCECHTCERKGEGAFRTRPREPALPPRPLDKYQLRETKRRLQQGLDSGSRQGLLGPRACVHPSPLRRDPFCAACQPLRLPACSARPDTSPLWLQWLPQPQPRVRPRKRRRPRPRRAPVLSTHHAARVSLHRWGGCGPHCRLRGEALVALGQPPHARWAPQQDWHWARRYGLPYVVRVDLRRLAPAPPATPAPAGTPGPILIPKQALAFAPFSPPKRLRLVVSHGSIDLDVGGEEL", "assay": "Selectivity interaction (Methyltransferase screen (radiometric assays, panel of 8 PRMTs, 21 protein lysine methyltransferases, 3 DNA methyltransferases, and one RNA methyltransferase)) EUB0000272b SUV420H2"}, "[6]": {"biological_target": "Wee1-like protein kinase (Homo sapiens) (UniProt P30291)", "sequence (P30291 whole entry, looked up)": "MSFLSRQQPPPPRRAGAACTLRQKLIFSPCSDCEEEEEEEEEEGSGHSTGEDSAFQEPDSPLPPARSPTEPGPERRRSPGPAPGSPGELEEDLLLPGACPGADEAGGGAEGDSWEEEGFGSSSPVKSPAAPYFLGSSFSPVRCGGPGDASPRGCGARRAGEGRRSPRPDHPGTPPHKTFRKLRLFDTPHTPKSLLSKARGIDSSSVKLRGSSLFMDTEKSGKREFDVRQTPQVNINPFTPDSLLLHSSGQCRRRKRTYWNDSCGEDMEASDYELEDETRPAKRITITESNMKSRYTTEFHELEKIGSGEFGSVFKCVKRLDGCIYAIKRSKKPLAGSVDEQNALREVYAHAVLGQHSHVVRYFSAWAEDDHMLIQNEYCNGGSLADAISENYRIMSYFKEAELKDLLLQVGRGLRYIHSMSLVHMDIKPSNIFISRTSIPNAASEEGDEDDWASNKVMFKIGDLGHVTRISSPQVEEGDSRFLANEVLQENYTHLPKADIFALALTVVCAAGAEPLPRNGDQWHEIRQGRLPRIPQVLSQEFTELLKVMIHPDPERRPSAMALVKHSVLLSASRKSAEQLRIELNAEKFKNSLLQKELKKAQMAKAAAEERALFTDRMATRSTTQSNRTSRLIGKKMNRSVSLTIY", "conditions": "at 10 µM"}, "[7]": {"biological_target": "5-hydroxytryptamine receptor 2A (Homo sapiens, UniProt P28223)", "sequence (P28223 whole entry)": "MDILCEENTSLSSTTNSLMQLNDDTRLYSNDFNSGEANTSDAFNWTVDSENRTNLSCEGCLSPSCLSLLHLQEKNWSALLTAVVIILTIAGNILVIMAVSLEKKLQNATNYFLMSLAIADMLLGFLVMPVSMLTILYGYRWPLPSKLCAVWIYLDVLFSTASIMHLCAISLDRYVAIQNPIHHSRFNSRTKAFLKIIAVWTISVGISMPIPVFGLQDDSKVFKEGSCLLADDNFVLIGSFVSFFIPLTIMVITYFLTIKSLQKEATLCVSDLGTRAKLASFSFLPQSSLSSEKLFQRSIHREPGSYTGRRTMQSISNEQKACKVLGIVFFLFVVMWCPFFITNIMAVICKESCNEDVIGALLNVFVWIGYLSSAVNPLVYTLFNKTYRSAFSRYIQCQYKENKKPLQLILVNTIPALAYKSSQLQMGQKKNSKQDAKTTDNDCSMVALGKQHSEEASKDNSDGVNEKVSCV", "assay": "Selectivity interaction (Safety Panel 44tm (Eurofins)) EUB0000162b HTR2A", "conditions": "at 10 µM"}, "[8]": {"biological_target": "T2, Ephrin type-A receptor 8 (Homo sapiens) (UniProt P29322)", "T2 sequence (whole entry)": "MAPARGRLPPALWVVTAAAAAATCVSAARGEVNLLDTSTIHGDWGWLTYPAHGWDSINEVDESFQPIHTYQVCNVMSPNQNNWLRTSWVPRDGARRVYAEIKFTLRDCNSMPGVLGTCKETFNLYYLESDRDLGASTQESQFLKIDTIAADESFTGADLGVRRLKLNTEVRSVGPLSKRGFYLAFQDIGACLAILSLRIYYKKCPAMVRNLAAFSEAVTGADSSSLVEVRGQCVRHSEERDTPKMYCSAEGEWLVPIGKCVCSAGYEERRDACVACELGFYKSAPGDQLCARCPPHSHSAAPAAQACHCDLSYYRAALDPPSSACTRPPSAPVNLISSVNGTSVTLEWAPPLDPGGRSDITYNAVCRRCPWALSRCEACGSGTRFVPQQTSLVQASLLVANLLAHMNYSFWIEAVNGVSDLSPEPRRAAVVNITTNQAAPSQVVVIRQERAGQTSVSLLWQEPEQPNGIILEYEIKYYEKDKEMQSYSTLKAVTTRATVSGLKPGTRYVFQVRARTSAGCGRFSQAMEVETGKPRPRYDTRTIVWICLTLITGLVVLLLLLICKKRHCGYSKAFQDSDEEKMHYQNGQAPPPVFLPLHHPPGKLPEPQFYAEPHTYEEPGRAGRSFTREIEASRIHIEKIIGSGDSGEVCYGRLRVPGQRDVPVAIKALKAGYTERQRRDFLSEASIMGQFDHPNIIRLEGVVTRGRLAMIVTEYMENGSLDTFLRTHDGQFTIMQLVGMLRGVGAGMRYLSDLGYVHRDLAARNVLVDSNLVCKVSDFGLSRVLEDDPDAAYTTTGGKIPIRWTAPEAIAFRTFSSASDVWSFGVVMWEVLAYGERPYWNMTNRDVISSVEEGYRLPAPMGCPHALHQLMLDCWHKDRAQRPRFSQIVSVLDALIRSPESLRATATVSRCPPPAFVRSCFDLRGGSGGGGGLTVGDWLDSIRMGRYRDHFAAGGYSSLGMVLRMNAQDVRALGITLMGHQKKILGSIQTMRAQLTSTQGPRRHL", "assay": "Selectivity interaction (KinomeScan (DiscoverX)) EUB0001049a EPHA8", "conditions": "at 1 µM"}, "[9]": {"biological_target": "Mitogen-activated protein kinase 11 (Homo sapiens) (UniProt Q15759)", "sequence (Q15759 whole entry)": "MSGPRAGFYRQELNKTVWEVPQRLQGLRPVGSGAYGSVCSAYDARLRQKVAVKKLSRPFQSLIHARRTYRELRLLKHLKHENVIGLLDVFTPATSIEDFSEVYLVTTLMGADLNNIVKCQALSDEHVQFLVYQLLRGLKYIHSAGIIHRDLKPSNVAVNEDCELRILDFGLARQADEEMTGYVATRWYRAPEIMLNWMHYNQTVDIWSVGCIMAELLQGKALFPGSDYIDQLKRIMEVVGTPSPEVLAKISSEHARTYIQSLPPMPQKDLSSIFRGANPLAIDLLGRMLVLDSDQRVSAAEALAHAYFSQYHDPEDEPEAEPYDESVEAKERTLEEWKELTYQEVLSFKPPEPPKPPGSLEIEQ", "assay": "Selectivity interaction (KinomeScan (DiscoverX)) EUB0001619a MAPK11", "conditions": "at 1 µM"}, "[10]": {"biological_target": "Focal adhesion kinase 1 (Homo sapiens, UniProt Q05397)", "sequence (Q05397 2-1052 limits assumed)": "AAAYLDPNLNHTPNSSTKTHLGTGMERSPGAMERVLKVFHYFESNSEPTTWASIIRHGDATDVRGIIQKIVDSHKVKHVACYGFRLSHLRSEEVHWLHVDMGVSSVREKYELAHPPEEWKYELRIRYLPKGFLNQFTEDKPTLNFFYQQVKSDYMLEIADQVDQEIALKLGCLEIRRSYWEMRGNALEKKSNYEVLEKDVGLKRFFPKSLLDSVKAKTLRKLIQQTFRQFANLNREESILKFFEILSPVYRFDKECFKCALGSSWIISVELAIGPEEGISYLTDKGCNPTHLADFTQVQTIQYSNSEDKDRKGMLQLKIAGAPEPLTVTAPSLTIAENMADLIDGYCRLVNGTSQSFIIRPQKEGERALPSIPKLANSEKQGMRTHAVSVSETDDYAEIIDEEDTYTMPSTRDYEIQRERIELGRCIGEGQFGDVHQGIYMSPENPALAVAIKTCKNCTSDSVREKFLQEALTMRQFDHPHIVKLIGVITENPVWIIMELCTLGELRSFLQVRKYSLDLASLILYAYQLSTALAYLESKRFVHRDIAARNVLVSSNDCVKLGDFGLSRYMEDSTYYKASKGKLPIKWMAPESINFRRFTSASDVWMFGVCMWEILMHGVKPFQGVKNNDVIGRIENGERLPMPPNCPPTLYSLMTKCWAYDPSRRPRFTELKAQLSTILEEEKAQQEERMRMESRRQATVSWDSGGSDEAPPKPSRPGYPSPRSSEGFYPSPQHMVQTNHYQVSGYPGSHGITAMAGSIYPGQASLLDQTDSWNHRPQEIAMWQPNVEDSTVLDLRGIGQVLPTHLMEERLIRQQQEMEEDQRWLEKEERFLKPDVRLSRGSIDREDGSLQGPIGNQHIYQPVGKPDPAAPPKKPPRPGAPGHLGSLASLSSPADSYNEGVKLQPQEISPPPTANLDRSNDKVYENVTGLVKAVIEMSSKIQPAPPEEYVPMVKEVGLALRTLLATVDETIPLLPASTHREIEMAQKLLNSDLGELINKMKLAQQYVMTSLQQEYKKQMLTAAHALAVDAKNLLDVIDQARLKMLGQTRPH", "assay": "Selectivity interaction (ActivX KiNativ screen (kinase selectivity in THP-1 cell lysates)) EUB0000639a PTK2", "assay_type": "subcellular", "conditions": "lysate, at 5 µM"}}, "data": [{"compound": "COc1cc(N(C)c2ccnc3ccc(C(F)(F)F)cc23)cc(OC)c1OC", "values": [{"measurement": "% binding", "setting": "[1]", "result": 73, "unit": "%"}, {"measurement": "% binding", "setting": "[2]", "result": 100, "unit": "%"}]}, {"compound": "Cc1cc(F)c(C(=O)Nc2cccc(-c3nncn3C(C)C)n2)cc1-n1cnc(C2CC2)c1", "values": [{"measurement": "% of control", "setting": "[3]", "result": 100, "unit": "%"}]}, {"compound": "Cn1cc(-n2cnc3c(NCc4nc5cc(Cl)c(Cl)cc5[nH]4)nc(N4CCOCC4)nc32)cn1", "values": [{"measurement": "% of control", "setting": "[4]", "result": 8.16, "unit": "%"}]}, {"compound": "Cc1cc(C)cc([C@H]2c3cc(C)ccc3NC(=O)CN2C(=O)c2ccc(Br)s2)c1", "values": [{"measurement": "% of activity", "setting": "[5]; at 1 µM", "result": 101, "unit": "%"}, {"measurement": "% of activity", "setting": "[5]; at 10 µM", "result": 102, "unit": "%"}]}, {"compound": "Cc1cc([C@@H](C)Nc2ccccc2C(=O)O)c2nc(N3CCOCC3)cc(=O)n2c1", "note": "[AZD-6482]", "values": [{"measurement": "% of control", "setting": "[6]", "result": 100, "unit": "%"}]}, {"compound": "CN(C)C(=O)Cn1cc(-c2ccc(-c3cncc4ccccc34)cc2)cn1", "values": [{"measurement": "% of control", "setting": "[7]", "result": 87, "unit": "%"}]}, {"compound": "COc1cc(Nc2nc(C)cc(-c3cnn4nc(OC)ccc34)n2)cc(C(F)(F)F)c1", "values": [{"measurement": "% of control", "setting": "[8]", "result": 81, "unit": "%"}]}, {"compound": "N#Cc1cccc(-c2c[nH]c3ncnc(N4CCOCC4)c23)c1", "values": [{"measurement": "% of control", "setting": "[9]", "result": 100, "unit": "%"}]}, {"compound": "CC[C@@H]1[C@H](F)C(=O)N[C@@H]1COc1nccc2cc(C(N)=O)c(OC)cc12", "note": "[ZIMLOVISERTIB]", "values": [{"measurement": "% of inhibition", "setting": "[10]", "result": -9.4, "unit": "%"}]}]}
